Measurements published in patent publication US7125568B2, “Lipophilic drug compositions” (priority 2001, dated 2006).
Where two headings read alike, the source gives them in different places.

Columns and labels:
fungal growth = assay: Topical treatment of yellow fungal toes; assay type: in vivo, patients; details: 3% weight percent gel, 5 consecutive days then weekly for 4 weeks, after two weeks
Protocol: In the present study, patients suffering from yellow fungal toes were treated with a 3% weight percent BA3540 in a gel formulation (gel comprises propylene glycol and 0.8% Carbopol® Gel) for 5 consecutive days by topical application of the gel formulation on the surrounding nail cuticle area, followed by weekly treatment with the gel formulation for the next 4 weeks. The thickening of the nail caused by fungal growth disappeared after two weeks, and several months later a healthy nail began to appear behind the thick nail.

Sarcocystis neurona = tested on: Sarcocystis neurona
Excerpt: The new drug was encapsulated as in Example 4 with 27% palmitic acid and 73% of Sterotex®.
Case 1: “Chris” is a 7 year old quarter horse gelding. […] Chris was given daily oral treatment of the new paste formulation containing lipid encapsulated 2-lauramide-5-nitrothiazole for a total of 28 dosings with 25 gm/syringe. (On day 22 to 28, the drug was not given and then resumed medication in the following week).
Case 2: “Brooke” is an 18-year-old thoroughbred mare. […] Again the horse was given daily oral treatments with the current dose of a typical 1000 lb horse at about 50 mg/Kg body weigh or 25 gm/day.
Case 3: “Foundation Man” is a 22-year-old Appaloosa gelding. […] Foundation Man was given daily oral treatments with the same amount of medication for 28 days.

coccidia = assay: Treatment of coccidiosis in chickens (fecal float oocyst levels)
Protocol: An initial trial involving 120 broilers (4 week old chickens) for the treatment of coccidiosis was made. Three treatment groups were used: (1) control, (2) low dose of 10 mg BA 3540/kg treatment, and (3) high dose at 50 mg BA 3540/kg treatment. The broilers were separated into six pens, […]. Fecal collection was begun to check for the presence of coccidian. The treatments were then assigned and the trial started. The treatment was added to a mash diet and fed adlib for seven days. At the end of the treatment period, new fecal collections for each treatment group were analyzed for the presence of coccidia.
Two fecal samples were taken from each pen and a fecal float was done to check oocyst levels. Oocyst levels are considered to determine the adult coccidian present in an intestinal tract.
A confirmatory trial was conducted with 10 seven-week-old Arbor Acres broilers. The birds were divided into two groups: control and 50 mg/kg treatment groups. The two set of cages were off the floor to prevent any potential contamination. The trial was monitored for four days and fecal floats for oocyte population were used to determine efficacy. Two fecal samples were collected from each cage.

HSV = assay: Plaque reduction assay, HSV in human embryonic fibroblast cells; assay type: cell-based, Herpes simplex virus
Protocol: (§1) The drugs, NTZ and BA 3540, were made soluble at 10 mg/mL in dimethylsulfoxide and then diluted in media to 50 μg/mL, 5 μg/mL, 2.5 μg/mL, and 1.5 μg/mL. Human embryonic fibroblast cells were propagated in minimal essential media and supplemented with 10% fetal bovine serum. Cells were pre-treated with the two drugs at the 4 specified concentrations plus a zero control for 45 minutes. The plates were each infected with 300–400 viral particles of either HSV or HCMV for 1 hour. Drug free media was added to each plate and incubation continued for 3 days to propagate virus. At the end of three days, the supernatant from each of the plates was removed for plaque reduction assays.

[1] = Solubility and heat stability of the bulk drug; assay type: physicochemical
Protocol: In a typical example, an equimolar ratio (approximately 2.5 moles) of lauric acid is activated with dicyclohexyl-carbodiimide (DCC) in 500 mL of dimethylformamide. After 90 minutes, the insoluble dicyclohexylurea formed is removed by vacuum filtration. The activated lauric acid solution is then added in approximately 1:1 ratio of the nucleophile 2-amino-5 nitro-thiazole in 600 mL of methylene chloride, 60 ml of pyridine and made up to 3.5 liters with dimethylformamide. The reaction is allowed to proceed for 40–48 hours with shaking, stirring or heating at 50° C. The product formed is obtained and purified by precipitation and recrystallization in methanol and or acetone. This synthesis scheme is depicted as 2-lauramide-5-nitrothioazole and is a nice needle shaped microcrystal. […] To promote complete dissolution, the drug has to be lightly heated.

HCMV = assay: Plaque reduction assay, HCMV in human embryonic fibroblast cells; assay type: cell-based, Human Cytomalovirus
Protocol: as §1

[2] = Degradation of acetylbenzamide nitrothiazole in 0.1 M NaCO3 (optical density); assay type: physicochemical; details: 0.1 M NaCO3, at 3 hours
Excerpt: (§2) Acetylbenzamide nitrothiazole, otherwise known as NTZ, is an antibiotic drug useful as a treatment for protozoan parasites. […] Acetylbenzamide nitrothiazole encapsulated by Sterotex® as described in Example 1 is hydrophobic and remains afloat on the water surface.
The kinetic of degradation of acetylbenzamnide nitrothiazole in 0.1 M NaCO3 is similar to the aspirin curve of FIG. 1. […] 1, while the free drug has an optical density of 1.9. This example also illustrates the stabilizing effect of lipid encapsulation.

[3] = free form; cited from earlier work
[4] = Solubility and stability in water; assay type: physicochemical
Excerpt: as §2

[5] = cited from earlier work
[6] = Degradation of aspirin in sodium carbonate, monitored by UV spectrophotometry; assay type: physicochemical; details: 0.1 M NaCO3 (10 pH), at 27 hours
Excerpt: In this example, aspirin is encapsulated in Sterotex® using the method described in Example 1. In aspirin, the deacetylated species is salicylic acid, which has a characteristic absorbency at 296 nm. The comparison of drug stability of Sterotex®/aspirin vs. aspirin was made in 0.1 M NaCO3 (10 pH) and the kinetics of degradation monitored by UV spectrophotometry. In FIG. 1, the appearance of salicylic acid is compared between aspirin encapsulated in Sterotex® and free aspirin. Aspirin slowly dissolves and is hydrolyzed to salicylic acid in a basic solution of 0.1 M NaCO3. At 27 hours, it is roughly 38% hydrolyzed. By contrast, aspirin encapsulated in Sterotex® is quite stable even at 27 hours and is only less than 2% degraded. This example illustrates the increase in drug stability provided by encapsulation in a lipid component.

In the case of `CCCCCCCCCCCC(=O)Nc1ncc([N+](=O)[O-])s1` [BA 3540, 2-lauramide-5-nitrothiazole], the “thickening of the nail caused by fungal growth” value (fungal growth) is reported as “disappeared”, the “EPM grade after treatment” value (Sarcocystis neurona; Case 1 Chris, from Grade 3, lipid encapsulated paste, oral daily, 28 dosings, 25 gm/syringe) is reported as 0/1 and the “EPM grade after treatment” value (Sarcocystis neurona; Case 2 Brooke, started at Grade 2, day 29, about 50 mg/Kg or 25 gm/day oral) is reported as 2 grade. The “EPM grade after treatment” value (Sarcocystis neurona; Case 3 Foundation Man, from Grade 2/3, 28 day oral treatment) was 0 Grade, the “recovery from EPM” value (Sarcocystis neurona; all three horses, owners' reports, day 84) was “fully recovered” and the side effects (Sarcocystis neurona; in vivo, po) was “no side effects”. For the same compound, the mortality (coccidia; broilers, 10 and 50 mg/kg in diet) was “no mortality”, the “oocytes in fecal samples” value (coccidia; confirmatory trial, 50 mg/kg, four days, seven-week-old broilers) was “no visible oocytes” and the “samples with detectable oocyst” value (coccidia; high dose group 50 mg/kg in mash diet, initial trial) was 1 of 4. For the same compound, the amount of oocyst (coccidia; low treatment group 10 mg/kg in mash diet, initial trial) was “about the same as the control group”, the therapeutic range (HSV) was 5 to 10 µg/mL and the plaques (HSV; 1.5 μg/mL, control 110 plaques) was 90. The solubility in methanol ([1]; bulk drug) was “sparingly soluble”, the “solubility in methylene chloride and dimethylforamide” value ([1]; bulk drug) was “more soluble” and the solubility in water ([1]; bulk drug) was “insoluble”. The “stability on heating in organic solvents” value ([1]; methanol, acetone, methylene chloride, dimethylforamide at 60–80° C.) was “no appreciable detriment”, the projected therapeutic range (HCMV) was 1.5 to 2.5 µg/mL and the plaques (HCMV; 1.5 μg/mL, controls 300 plaques) was 3. For the same compound, the plaques (HCMV; 2.5 μg/mL, controls 300 plaques) was 1 and the plaques (HCMV; higher drug concentrations (5 and 50 μg/mL)) was “none”.
For `CC(=O)Oc1ccccc1C(=O)Nc1ncc([N+](=O)[O-])s1` [NTZ, Nitazoxanide], the optical density [2] is given as 1.9, the “adverse effects in horses” value [3] is given as “causes anorexia, depression and diathermia or loose stool” and the stability in water ([4]; standing in water, room temperature) is given as “converted to the deacetylated counterpart”. The solubility in water ([4]; water) was “sparingly soluble”, the plaques (HCMV; all four drug concentrations (1.5, 2.5, 5, 50 μg/mL), control 310 plaques) was “no viral plaques” and the “expiry of bulk drug” value [5] was “two”.
In the case of `CC(=O)Oc1ccccc1C(=O)O` [aspirin], the “hydrolyzed to salicylic acid (degraded)” value [6] is reported as “roughly 38%”.
